Data published in ChEMBL document CHEMBL5357082, “Identification and Optimization of Small Molecule Pyrazolopyrimidine TLR7 Agonists for Applications in Immuno-oncology” (ACS Med Chem Lett, 2024).
Calls of active or inactive are those of the source. The calls are words filed in the database; no cut-off is given here.

What was measured:
[1] = Metabolic stability in human liver microsomes assessed as compound remaining at 0.5 uM incubated for 10 mins in presence of NADPH by UV absorbance based assay; format: ADME, Microsome; settings: read-out: Stability
Cytochrome P450 3A4 [2] = molecular target: T1, Cytochrome P450 3A4 (Homo sapiens, UniProt P08684); experiment: Inhibition of CYP3A4 (unknown origin) using BFC as substrate preincubated with compound followed by substrate addition at 30 mins; format: ADME
Cytochrome P450 2D6 = Cytochrome P450 2D6 (Homo sapiens, UniProt P10635); experiment: Inhibition of CYP2D6 (unknown origin); format: ADME
[3] = Cytotoxicity against PHA-activated T-cells (unknown origin) assessed as inhibition of IL-2 induced cell proliferation measured after 72 hrs by MTS assay; format: toxicity, cell-based
Cytochrome P450 1A2 = molecular target: T2, Cytochrome P450 1A2 (Homo sapiens, UniProt P05177); experiment: Inhibition of CYP1A2 (unknown origin); format: ADME
T2 sequence (P05177 whole entry): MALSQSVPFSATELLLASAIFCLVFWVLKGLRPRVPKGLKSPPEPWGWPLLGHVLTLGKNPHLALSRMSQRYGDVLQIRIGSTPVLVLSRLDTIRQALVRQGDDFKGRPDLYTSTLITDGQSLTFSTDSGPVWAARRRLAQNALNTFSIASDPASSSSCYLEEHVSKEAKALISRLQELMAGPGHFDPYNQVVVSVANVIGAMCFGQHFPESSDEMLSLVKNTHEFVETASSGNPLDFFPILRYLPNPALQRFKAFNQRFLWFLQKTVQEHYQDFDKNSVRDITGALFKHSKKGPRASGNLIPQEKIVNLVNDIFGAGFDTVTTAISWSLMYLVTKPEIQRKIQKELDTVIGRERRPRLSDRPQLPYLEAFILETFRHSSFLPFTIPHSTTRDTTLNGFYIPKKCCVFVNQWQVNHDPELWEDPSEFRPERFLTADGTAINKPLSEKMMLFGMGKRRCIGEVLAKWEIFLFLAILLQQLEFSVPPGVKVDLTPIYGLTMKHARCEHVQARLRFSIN

[4] = Metabolic stability in mouse liver microsomes assessed as compound remaining at 0.5 uM incubated for 10 mins in presence of NADPH by UV absorbance based assay; format: ADME, Microsome; settings: read-out: Stability
Cytochrome P450 2C19 = Cytochrome P450 2C19 (Homo sapiens, UniProt P33261); experiment: Inhibition of CYP2C19 (unknown origin); format: ADME
Cytochrome P450 3A4 [5] = molecular target: T1, Cytochrome P450 3A4; experiment: Inhibition of CYP3A4 (unknown origin) using BFC as substrate preincubated with compound followed by substrate addition at 5 mins; format: ADME
Cytochrome P450 3A4 [6] = molecular target: T1, Cytochrome P450 3A4; experiment: Inhibition of CYP3A4 (unknown origin) using BFC as substrate; format: ADME
[7] = molecular target: Voltage-gated inwardly rectifying potassium channel KCNH2 (Homo sapiens, UniProt Q12809); experiment: Inhibition of hERG; format: toxicity
[8] = molecular target: T3, Toll-like receptor 7 (Mus musculus) (UniProt P58681); experiment: (§1) Agonist activity at mouse TLR7
T3 sequence (whole entry): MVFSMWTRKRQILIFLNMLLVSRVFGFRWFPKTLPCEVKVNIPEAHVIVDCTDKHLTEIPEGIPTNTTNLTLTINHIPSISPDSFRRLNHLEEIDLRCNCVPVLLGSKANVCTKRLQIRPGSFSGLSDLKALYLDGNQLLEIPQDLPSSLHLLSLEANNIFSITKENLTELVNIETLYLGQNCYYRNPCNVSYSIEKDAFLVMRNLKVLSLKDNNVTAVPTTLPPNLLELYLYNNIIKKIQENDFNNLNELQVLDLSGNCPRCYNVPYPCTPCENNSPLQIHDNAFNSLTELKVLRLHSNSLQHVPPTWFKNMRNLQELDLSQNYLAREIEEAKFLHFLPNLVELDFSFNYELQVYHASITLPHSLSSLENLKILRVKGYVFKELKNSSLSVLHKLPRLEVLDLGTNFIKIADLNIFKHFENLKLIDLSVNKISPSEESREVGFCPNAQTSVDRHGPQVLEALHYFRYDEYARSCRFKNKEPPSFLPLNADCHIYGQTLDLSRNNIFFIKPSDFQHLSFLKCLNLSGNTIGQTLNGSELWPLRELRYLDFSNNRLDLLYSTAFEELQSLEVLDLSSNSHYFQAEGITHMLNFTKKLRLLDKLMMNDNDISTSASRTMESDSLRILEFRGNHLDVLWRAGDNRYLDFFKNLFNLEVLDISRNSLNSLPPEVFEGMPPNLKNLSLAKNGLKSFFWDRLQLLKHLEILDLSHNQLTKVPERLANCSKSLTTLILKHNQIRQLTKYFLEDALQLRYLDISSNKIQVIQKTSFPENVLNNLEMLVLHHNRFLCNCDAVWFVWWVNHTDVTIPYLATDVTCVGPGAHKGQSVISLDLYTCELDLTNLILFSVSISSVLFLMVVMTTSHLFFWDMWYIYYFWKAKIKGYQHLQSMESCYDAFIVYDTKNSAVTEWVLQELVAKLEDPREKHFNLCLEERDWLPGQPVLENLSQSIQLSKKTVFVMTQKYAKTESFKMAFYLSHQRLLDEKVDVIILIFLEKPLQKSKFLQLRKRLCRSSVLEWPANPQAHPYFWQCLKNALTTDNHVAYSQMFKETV

Cytochrome P450 2C8 = molecular target: T4, Cytochrome P450 2C8 (Homo sapiens, UniProt P10632); experiment: Inhibition of CYP2C8 (unknown origin); format: ADME
T4 sequence (P10632 whole entry): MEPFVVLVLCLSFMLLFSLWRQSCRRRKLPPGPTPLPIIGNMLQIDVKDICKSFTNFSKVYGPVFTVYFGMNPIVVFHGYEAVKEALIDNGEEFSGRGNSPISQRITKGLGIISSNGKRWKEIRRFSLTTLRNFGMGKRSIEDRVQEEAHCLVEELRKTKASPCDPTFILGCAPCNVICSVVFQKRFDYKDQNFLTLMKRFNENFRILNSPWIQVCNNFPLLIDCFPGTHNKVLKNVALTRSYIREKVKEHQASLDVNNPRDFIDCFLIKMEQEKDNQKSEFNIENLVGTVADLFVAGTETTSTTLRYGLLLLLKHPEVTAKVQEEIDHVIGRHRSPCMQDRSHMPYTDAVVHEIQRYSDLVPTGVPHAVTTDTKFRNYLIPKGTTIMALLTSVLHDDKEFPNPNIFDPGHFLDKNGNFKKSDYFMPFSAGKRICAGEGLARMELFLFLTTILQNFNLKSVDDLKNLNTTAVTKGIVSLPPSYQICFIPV

Cytochrome P450 2C9 = Cytochrome P450 2C9 (Homo sapiens, UniProt P11712); experiment: Inhibition of CYP2C9 (unknown origin); format: ADME
Toll-like receptor 7 [9] = molecular target: T5, Toll-like receptor 7 (Homo sapiens, UniProt Q9NYK1); experiment: Agonist activity at human TLR7 in HEK-Blue hTLR7 cells harboring SEAP reporter transgene incubated for 18 hrs by quanti-blue reagent based assay; format: cell-based
T5 sequence (Q9NYK1 whole entry): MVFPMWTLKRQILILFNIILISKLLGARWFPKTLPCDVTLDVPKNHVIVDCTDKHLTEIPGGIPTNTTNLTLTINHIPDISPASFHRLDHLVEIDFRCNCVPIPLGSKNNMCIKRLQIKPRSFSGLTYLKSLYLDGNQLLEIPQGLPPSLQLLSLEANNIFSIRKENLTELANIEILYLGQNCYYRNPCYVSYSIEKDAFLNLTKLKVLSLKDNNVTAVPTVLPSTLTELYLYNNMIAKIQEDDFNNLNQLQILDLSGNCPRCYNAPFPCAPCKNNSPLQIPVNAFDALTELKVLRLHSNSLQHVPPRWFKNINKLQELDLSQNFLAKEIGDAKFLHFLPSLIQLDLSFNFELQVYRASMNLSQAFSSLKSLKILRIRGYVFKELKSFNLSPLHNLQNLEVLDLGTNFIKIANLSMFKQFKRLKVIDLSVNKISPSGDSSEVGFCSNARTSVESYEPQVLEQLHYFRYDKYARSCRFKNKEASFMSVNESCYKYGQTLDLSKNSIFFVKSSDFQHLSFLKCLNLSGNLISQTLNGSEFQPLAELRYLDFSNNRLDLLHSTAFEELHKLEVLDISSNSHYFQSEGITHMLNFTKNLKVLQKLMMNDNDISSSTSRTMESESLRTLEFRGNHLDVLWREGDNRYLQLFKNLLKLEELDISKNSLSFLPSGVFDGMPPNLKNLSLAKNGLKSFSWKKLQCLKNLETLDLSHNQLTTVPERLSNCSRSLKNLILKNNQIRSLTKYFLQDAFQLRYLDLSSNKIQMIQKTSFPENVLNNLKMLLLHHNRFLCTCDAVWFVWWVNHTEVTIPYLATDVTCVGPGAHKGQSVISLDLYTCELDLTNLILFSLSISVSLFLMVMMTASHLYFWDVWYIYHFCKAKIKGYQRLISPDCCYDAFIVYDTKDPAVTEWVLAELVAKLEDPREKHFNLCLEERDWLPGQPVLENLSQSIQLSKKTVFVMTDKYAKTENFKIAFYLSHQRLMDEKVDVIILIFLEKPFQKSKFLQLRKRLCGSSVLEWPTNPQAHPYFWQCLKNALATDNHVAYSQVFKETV

[10] = Permeability of compound at pH 7.4 by PAMPA; format: ADME; settings: read-out: permeability
Toll-like receptor 7 [11] = molecular target: T6, Toll-like receptor 7 (Mus musculus, UniProt P58681); experiment: as §1
T6 sequence (P58681 whole entry): T3 sequence (whole entry)

Cytochrome P450 2D6, sequence (P10635 whole entry): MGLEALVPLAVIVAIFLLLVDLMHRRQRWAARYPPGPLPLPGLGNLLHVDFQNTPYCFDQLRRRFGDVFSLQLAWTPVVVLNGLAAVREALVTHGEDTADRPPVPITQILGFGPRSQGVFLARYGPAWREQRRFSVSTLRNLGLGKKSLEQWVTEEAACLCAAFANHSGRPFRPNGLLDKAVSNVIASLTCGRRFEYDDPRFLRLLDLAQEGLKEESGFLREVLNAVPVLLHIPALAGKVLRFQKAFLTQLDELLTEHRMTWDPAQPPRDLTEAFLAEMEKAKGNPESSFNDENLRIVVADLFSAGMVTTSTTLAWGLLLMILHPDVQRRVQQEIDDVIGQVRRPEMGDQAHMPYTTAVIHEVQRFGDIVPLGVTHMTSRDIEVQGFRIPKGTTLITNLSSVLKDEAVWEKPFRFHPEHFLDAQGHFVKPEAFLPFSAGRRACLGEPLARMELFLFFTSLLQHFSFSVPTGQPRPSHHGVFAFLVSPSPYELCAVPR
Cytochrome P450 2C19, sequence (P33261 whole entry): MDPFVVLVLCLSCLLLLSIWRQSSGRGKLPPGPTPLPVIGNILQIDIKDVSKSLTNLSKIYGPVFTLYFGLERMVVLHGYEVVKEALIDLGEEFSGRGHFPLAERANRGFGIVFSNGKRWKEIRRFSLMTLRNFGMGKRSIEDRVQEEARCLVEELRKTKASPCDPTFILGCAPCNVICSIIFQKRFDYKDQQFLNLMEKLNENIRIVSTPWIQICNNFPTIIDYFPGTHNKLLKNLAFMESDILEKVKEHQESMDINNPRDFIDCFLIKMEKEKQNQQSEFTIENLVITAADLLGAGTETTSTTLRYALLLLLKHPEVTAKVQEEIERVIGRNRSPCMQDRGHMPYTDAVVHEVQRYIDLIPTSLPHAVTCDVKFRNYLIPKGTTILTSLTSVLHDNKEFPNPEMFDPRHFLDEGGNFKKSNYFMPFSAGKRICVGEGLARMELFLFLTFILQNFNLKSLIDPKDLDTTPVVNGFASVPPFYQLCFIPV
T1 sequence (P08684 whole entry): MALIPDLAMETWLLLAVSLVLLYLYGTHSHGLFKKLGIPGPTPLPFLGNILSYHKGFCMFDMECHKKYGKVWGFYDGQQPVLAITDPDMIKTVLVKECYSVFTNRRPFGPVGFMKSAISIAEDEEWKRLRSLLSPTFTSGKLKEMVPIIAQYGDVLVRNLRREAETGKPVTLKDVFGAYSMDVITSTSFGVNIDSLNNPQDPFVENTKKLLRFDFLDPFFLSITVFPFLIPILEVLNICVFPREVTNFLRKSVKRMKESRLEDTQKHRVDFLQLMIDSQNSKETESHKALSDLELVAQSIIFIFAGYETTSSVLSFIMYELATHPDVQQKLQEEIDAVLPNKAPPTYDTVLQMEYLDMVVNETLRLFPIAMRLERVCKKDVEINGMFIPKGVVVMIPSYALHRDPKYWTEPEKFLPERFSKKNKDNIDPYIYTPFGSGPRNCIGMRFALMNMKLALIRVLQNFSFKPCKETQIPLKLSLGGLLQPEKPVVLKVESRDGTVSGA
Voltage-gated inwardly rectifying potassium channel KCNH2, sequence (Q12809 whole entry): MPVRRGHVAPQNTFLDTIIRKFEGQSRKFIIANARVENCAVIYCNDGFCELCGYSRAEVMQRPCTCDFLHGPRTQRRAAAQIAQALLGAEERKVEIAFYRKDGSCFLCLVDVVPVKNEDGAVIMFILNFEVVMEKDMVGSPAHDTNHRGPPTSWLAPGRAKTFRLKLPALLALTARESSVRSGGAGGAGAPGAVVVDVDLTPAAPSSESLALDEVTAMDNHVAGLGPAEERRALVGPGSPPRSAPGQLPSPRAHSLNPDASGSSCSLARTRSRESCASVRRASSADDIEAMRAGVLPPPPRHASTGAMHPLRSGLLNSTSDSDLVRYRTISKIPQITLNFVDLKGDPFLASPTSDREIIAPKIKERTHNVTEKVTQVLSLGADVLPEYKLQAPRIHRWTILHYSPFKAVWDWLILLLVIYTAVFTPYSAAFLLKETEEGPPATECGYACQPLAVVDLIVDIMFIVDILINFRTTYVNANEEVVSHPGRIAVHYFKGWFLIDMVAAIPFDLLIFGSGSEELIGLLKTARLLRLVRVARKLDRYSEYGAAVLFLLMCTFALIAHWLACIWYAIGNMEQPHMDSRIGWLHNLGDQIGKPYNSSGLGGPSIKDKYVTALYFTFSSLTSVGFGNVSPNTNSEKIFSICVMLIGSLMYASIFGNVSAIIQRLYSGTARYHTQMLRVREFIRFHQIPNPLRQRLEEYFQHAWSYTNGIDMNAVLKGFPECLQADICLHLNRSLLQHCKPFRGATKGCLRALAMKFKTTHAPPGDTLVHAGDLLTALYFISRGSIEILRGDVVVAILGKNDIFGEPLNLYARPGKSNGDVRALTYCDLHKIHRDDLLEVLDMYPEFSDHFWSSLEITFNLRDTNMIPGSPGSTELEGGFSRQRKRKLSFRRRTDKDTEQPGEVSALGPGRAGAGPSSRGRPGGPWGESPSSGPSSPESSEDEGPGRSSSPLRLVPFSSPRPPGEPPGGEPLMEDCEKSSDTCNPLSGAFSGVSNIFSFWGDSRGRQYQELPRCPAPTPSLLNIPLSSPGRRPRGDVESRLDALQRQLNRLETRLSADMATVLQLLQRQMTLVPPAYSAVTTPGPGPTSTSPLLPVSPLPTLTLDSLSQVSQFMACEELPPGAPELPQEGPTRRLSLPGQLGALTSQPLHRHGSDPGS
Cytochrome P450 2C9, sequence (P11712 whole entry): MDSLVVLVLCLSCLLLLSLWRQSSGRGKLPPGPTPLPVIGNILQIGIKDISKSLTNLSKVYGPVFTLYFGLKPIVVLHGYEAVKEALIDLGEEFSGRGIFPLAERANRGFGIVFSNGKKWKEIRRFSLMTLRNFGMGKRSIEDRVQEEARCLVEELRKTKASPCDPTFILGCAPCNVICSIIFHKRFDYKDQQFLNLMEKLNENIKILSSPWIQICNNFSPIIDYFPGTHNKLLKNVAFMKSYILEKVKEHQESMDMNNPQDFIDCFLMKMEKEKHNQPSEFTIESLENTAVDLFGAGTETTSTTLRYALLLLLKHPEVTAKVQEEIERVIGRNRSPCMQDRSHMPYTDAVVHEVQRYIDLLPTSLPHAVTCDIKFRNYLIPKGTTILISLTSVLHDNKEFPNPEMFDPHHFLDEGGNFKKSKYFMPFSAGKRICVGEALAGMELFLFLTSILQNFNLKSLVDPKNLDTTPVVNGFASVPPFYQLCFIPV

Row | SMILES | remaining at 10 min, 0.5 µM [1] [%] | IC50 (Cytochrome P450 3A4 [2]) [µM] | IC50 (Cytochrome P450 2D6) [µM] | IC50 at 72 h [3] [µM] | IC50 (Cytochrome P450 1A2) [µM] | remaining at 10 min, 0.5 µM [4] [%] | IC50 (Cytochrome P450 2C19) [µM] | IC50 (Cytochrome P450 3A4 [5]) [µM] | IC50 (Cytochrome P450 3A4 [6]) [µM] | IC50 [7] [µM] | Activity [8] | IC50 (Cytochrome P450 2C8) [µM] | IC50 (Cytochrome P450 2C9) [µM] | EC50 (Toll-like receptor 7 [9]) [µM] | Papp [10] [×10⁻⁶ cm/s] | EC50 (Toll-like receptor 7 [11]) [µM]
1 | CCC[C@@H](CCO)Nc1nc(N)nc2cnn(Cc3ncc(C4CCN(C5CCN(C)CC5)CC4)cc3OC)c12 | 99 | > 20 | > 20 | > 25 | > 20 | 85 | > 20 | > 20 | > 20 | > 50 | inactive | > 20 | > 20 | – | – | –
2 | CCC[C@@H](CCO)Nc1nc(N)nc2cnn(Cc3ncc(C4CCNCC4)cc3OC)c12 | 84 | > 20 | > 20 | > 25 | > 20 | 85 | > 20 | > 20 | > 20 | > 50 | – | > 20 | > 20 | 0.163 | 0.9 | 0.512
3 | CCC[C@@H](CCO)Nc1nc(N)nc2cnn(Cc3ncc(C4CCN(CC#N)CC4)cc3OC)c12 | 65 | > 20 | > 20 | > 25 | > 20 | 67 | > 20 | > 20 | > 20 | 30.2 | inactive | > 20 | > 20 | 0.145 | – | –
4 | CCC[C@@H](CCO)Nc1nc(N)nc2cnn(Cc3ncc(C4CCN(C(C)C)CC4)cc3OC)c12 | 80 | > 20 | > 20 | > 25 | > 20 | 78 | > 20 | > 20 | > 20 | > 50 | – | > 20 | > 20 | 0.018 | 93 | 0.041
5 | CCC[C@@H](CCO)Nc1nc(N)nc2cnn(Cc3ncc(C4CCN(C)CC4)cc3OC)c12 | 78 | > 20 | > 20 | > 25 | > 20 | 76 | > 20 | > 20 | > 20 | 43 | – | > 20 | > 20 | – | 6.6 | 0.076
6 | CCC[C@@H](CCO)Nc1nc(N)nc2cnn(Cc3ncc(C4CCN(C5CCNCC5)CC4)cc3OC)c12 | 100 | > 20 | > 20 | > 25 | > 20 | 100 | > 20 | > 20 | > 20 | 32.6 | inactive | > 20 | > 20 | – | – | –
7 | CCC[C@H](CCO)Nc1nc(N)nc2cnn(Cc3ncc(C4CCN(C5CCOCC5)CC4)cc3OC)c12 | 67 | > 20 | > 20 | > 25 | > 20 | 95 | > 20 | > 20 | > 20 | > 50 | inactive | > 20 | > 20 | 0.272 | – | –
